In the NIST ThermoML archive (doi:10.1021/acs.jced.5b00112):
Numbers after ± are expanded uncertainties.

Assay: wn = mass fraction of the nth substance listed
Settings: 348 K, 101 kPa, Liquid, Pycnometric method

mass density (w1 = 0.7426) | mass density (w1 = 0.5348) | Structure (SMILES)
2062.6 ± 3.5 kg/m3 | – | [Br-].[Br-].[Ca+2] [calcium bromide] + O
– | 1674.1 ± 1.8 kg/m3 | [Br-].[Br-].[Mg+2] [magnesium bromide (MgBr2)] + O
